From US7582428B2, “Methods and compositions for identifying anti-HCV agents” (priority 2003, dated 2009)

Columns and labels:
NS4B-GFP = NS4B-GFP (Hepatitis C virus genotype 1b, UniProt Q9WMX2); format: binding, HCV
GST-NS4B = biological target: T1, GST-NS4B (Hepatitis C virus genotype 1b, UniProt Q9WMX2); assay: RNA binding assay; set-up: species or system HCV; settings: 5 mM nucleotide; compared with GTP-γ-S
T1 construct: wild type NS4B and the four NBM mutants were fused in frame with N-terminal Glutathione-S Transferase (GST) tags and assayed; made in house; host or cells: E. coli BL21 (pDEST15)
T1 sequence (Q9WMX2 1712-1972 limits assumed): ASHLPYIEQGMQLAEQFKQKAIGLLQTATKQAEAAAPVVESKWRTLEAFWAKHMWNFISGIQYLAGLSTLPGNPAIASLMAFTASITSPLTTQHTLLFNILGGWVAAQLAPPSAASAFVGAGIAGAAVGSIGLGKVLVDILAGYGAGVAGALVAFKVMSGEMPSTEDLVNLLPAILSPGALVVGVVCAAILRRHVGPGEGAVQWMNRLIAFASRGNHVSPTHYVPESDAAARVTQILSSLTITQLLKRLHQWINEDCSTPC
Protocol: RNA binding assay. 1 μg of purified protein was incubated for an hour at 37° C. in a 50 μl reaction mixture containing ^32P-labeled in vitro transcribed HCV RNA (prepared by using Sca I-linearized Bart79I plasmid (wild type HCV replicon (3)) as template, T7 RNA polymerase, and Riboprobe®/Promega, according to the manufacturer's protocol), binding buffer (10 mM DTT, 10 mM Na HEPES (pH 7.4), 33 mM NaCl, 0.1 mM EDTA, 10 mM MgCl2) and 5 mM of either GTP-γ-S or GDP (Sigma). 50 μl of tRNA pre-coated glutathione-agarose beads (Sigma) were then added, followed by 1 hour incubation at 4° C. to allow binding of GST to the beads. Samples were then washed three times in the binding buffer (in the absence of nucleotides). Aliquots were finally subjected to liquid scintillation counting for measuring bound RNA. Control incubations performed with reaction mixture prepared as above but with omission of T7 RNA polymerase were run in parallel and used for background subtraction.

## [N-]=[N+]=Nc1ccc(NP(=O)(O)OP(=O)(O)OP(=O)(O)OC[C@H]2O[C@@H](n3cnc4c(N)ncnc43)[C@H](O)[C@@H]2O)cc1 [ATP, ATP-γ4-azidoanilide]
NS4B-GFP
  labeling of NS4B-GFP by 32P-labeled photoactivatable nucleotide: significantly less efficient than GTP binding

## Nc1nc2c(ncn2[C@@H]2O[C@H](COP(=O)(O)OP(=O)(O)O)[C@@H](O)[C@H]2O)c(=O)[nH]1 [GDP]
GST-NS4B
  HCV RNA binding of GST-NS4B in the presence of guanyl nucleotide: dramatically increased

## [N-]=[N+]=Nc1ccc(NP(=O)(O)OP(=O)(O)OP(=O)(O)OC[C@H]2O[C@@H](n3cnc4c(=O)[nH]c(N)nc43)[C@H](O)[C@@H]2O)cc1 [GTP, GTP-γ-4-azidoanilide]
NS4B-GFP
  labeling of NS4B-GFP by 32P-labeled photoactivatable nucleotide: specifically labeled

## Nc1nc2c(ncn2[C@@H]2O[C@H](COP(=O)(O)OP(=O)(O)OP(O)(O)=S)[C@@H](O)[C@H]2O)c(=O)[nH]1 [GTPγS]
NS4B-GFP
  binding of labeled GTP in the presence of cold competitor nucleotide: progressively decreased
